Results as given in publication PMC12382740, “In Vitro and In Vivo Characterization of Novel Cathelicidin-Based Peptides with Antimicrobial Activity Against Pseudomonas aeruginosa” (Antibiotics, 2025).
Where two headings read alike, the source gives them in different places. Bridge positions count the residues as written; N and C are the ends. Square brackets hold non-standard residues; d marks the D form. Ends that are not written are not given here. Peptide text beside a SMILES is read from it.

What was measured:
Format in all cases: cell-based, Pseudomonas aeruginosa
[1] = tested on: Colistin Susceptible P. aeruginosa
Description: (§1) The antimicrobial activity of the peptides was tested against a collection of P. aeruginosa, selected by their resistance or susceptibility to colistin and/or classified as MDR strains. The origin of the strains was either clinical, relevant to the current clinical situation, or commercial strains belonging to the American Type Culture Collection (ATCC, Manassas, VA, USA), which complemented the collection for comparison and control. For the initial activity screening of the 17 peptides, we tested them against P. aeruginosa ATCC strains 1211007 and 1211101. Both strains are multidrug-resistant; however, the key difference is that strain 1211007 is susceptible to colistin, whereas strain 1211101 is resistant to colistin.
(§2) Minimum Inhibitory Concentration (MIC) of the antimicrobial agents against bacterial strains was obtained through broth microdilution assays following a protocol based on the Clinical & Laboratory Standards Institute’s guidelines. Modifications regarding microplate material and broth were included when testing the peptides’ activity and are detailed below. Colistin MICs were obtained following recommendations of the joint CLSI-EUCAST Polymyxin Breakpoints Working Group using Cation Adjusted Mueller-Hinton Broth (90922, 500 g Sigma-Aldrich®, St. Louis, MO, USA), and strains Escherichia coli 13846 (mcr-1 positive) and P. aeruginosa ATCC 27853 were used as quality controls in all assays. Bacteria were cultured in Columbia Agar plates (Columbia Agar with 5% Sheep Blood 90 mm Stacker plates, Becton Dickinson, Franklin Lakes, NJ, USA) and incubated overnight at 37 °C. Polypropylene round-bottomed 96-well plates (-96-well Polypropylene Storage Microplates, 267334, Thermo Fischer Scientific, Waltham, MA, USA) were used to prevent peptide binding to plate walls. AST broth (BD Phoenix™ AST broth, 8 mL, 246003, Becton Dickinson, Franklin Lakes, NJ, USA) was used when testing the peptides’ activity. […] Three biological and technical replicates were performed per strain.

[2] = tested on: Colistin-Resistant P. aeruginosa
Description: as §1, §2

[3] = tested on: P. aeruginosa Strain ATCC 121110
Description: as §1, §2

[4] = tested on: P. aeruginosa Strain 121007
Description: as §1, §2

[5] = tested on: P. aeruginosa strain panel; conditions: for MIC50 / MIC90: panel of 15 P. aeruginosa strains
Description: as §1, §2

[6] = colistin-susceptible P. aeruginosa
[7] = colistin-susceptible P. aeruginosa, value in brackets
[8] = colistin-resistant P. aeruginosa
[9] = colistin-resistant P. aeruginosa, value in brackets

Row | Compound | MIC [1, 6] [µg/mL] | MIC [1, 7] [µM] | MIC [2, 9] [µM] | MIC ([1]; Colistin Susceptible) [µg/mL] | MIC ([2]; Colistin-Resistant) [µg/mL] | also measured
1 | CC[C@H](C)[C@@H]1NC(=O)[C@@H](NC(=O)[C@@H](NC(=O)[C@@H]2CCCN2C(=O)[C@H](Cc2ccccc2)NC(=O)[C@H](Cc2c[nH]cn2)NC(=O)[C@@H](NC(=O)[C@@H](N)CC(=O)O)[C@@H](C)O)[C@@H](C)CC)CSSC[C@@H](C(=O)N[C@@H](CCCCN)C(=O)N[C@H](C(=O)O)[C@@H](C)O)NC(=O)[C@@H]2CSSC[C@@H]3NC(=O)[C@@H]4CSSC[C@H](NC(=O)[C@H](Cc5ccccc5)NC1=O)C(=O)N[C@@H](CSSC[C@H](NC(=O)[C@H](CCCCN)NC(=O)[C@H](CO)NC(=O)[C@H](CCCNC(=N)N)NC(=O)[C@H](Cc1c[nH]cn1)NC3=O)C(=O)NCC(=O)N[C@@H](CCSC)C(=O)N2)C(=O)NCC(=O)N4 [Hepcidin] | > 256 | > 92 | > 92 | – | – | MIC [2, 8]: > 256 µg/mL
2 | CC[C@@H](C)[C@@H](NC(=O)CNC(=O)[C@@H](CCC(N)=O)NC(=O)[C@@H](CCCCN)NC(=O)[C@H](NC(=O)[C@@H](CCC(N)=O)NC(=O)CNC(=O)[C@@H](CC(C)C)NC(=O)[C@@H](CC(C)C)NC(=O)[C@H]1CCCN1C(=O)[C@@H](CCCCN)NC(=O)[C@@H](CC(C)C)NC(=O)[C@@H](C)NC(=O)[C@H]1CCCN1C(=O)[C@@H](CCCNC(=N)N)NC(=O)[C@H](NC(=O)[C@@H](CC(=O)O)NC(=O)[C@H](N)Cc1ccc(O)cc1)[C@H](C)O)[C@H](C)CC)C(=O)N[C@H](CCCCN)C(=O)N[C@H](CCCCN)C(=O)N[C@H](CC(C)C)C(=O)N[C@H](CCCCN)C(=O)N[C@H](CCC(=O)O)C(=O)N[C@H](CCCCN)C(=O)N[C@@H](C(=O)N[C@H](CCCCN)C(=O)N[C@H](CC(N)=O)C(=O)N[C@H](CCCNC(=N)N)C(=O)N[C@H](Cc1ccccc1)C(=O)N[C@H](CCCCN)C(=O)N[C@H](CCCNC(=N)N)C(=O)N[C@H](CC(C)C)C(=O)N[C@H](CCCNC(=N)N)C(=O)N[C@H](CCCCN)C(=O)N[C@H](CCCNC(=N)N)C(=O)N[C@H](CC(C)C)C(=O)NCC(=O)O)[C@H](C)CC [R-CAP-18, Ydtrpalkpllgqikqgikklkekiknrfkrlrkrlg] (H-[dY][dD][dT][dR][dP][dA][dL][dK][dP][dL][dL]G[dQ][dI][dK][dQ]G[dI][dK][dK][dL][dK][dE][dK][dI][dK][dN][dR][dF][dK][dR][dL][dR][dK][dR][dL]G-OH) | – | – | – | – | – | MIC ([3]; Strain ATCC 121110): 32 µg/mL; MIC ([3]; Strain ATCC 121110, value in brackets): 7.2 µM; MIC ([4]; Strain 121007): 2 µg/mL; MIC ([4]; Strain 121007, value in brackets): 0.4 µM
3 | CC[C@H](C)[C@@H]1NC(=O)[C@@H]2CSSC[C@@H]3NC(=O)[C@H](Cc4ccccc4)NC(=O)[C@H](C)NC(=O)[C@H](Cc4c[nH]c5ccccc45)NC(=O)[C@H](CC(C)C)NC(=O)[C@H](CCCNC(=N)N)NC(=O)CNC(=O)[C@H](CCC(N)=O)NC(=O)[C@H](Cc4ccc(O)cc4)NC(=O)[C@H]([C@@H](C)CC)NC(=O)[C@H](CSSC[C@H](NC(=O)[C@H](Cc4ccc(O)cc4)NC(=O)[C@@H](N)CSSC[C@@H](C(=O)O)NC3=O)C(=O)N[C@@H](CCCNC(=N)N)C(=O)N[C@@H]([C@@H](C)CC)C(=O)N3CCC[C@H]3C(=O)N[C@@H](C)C(=O)N2)NC(=O)[C@H]([C@@H](C)O)NC(=O)CNC(=O)[C@H](Cc2ccc(O)cc2)NC(=O)[C@H](CCCNC(=N)N)NC(=O)[C@H](CCCNC(=N)N)NC(=O)[C@H](CCC(=O)O)NC(=O)CNC(=O)[C@H](C)NC1=O [α-defensin 2] (H-CYCRIPACIAGERRYGTCIYQGRLWAFCC-OH; disulfide 1-29, 3-18, 8-28; N-terminus and C-terminus assumed) | – | > 15 | > 15 | > 50 | > 50 | –
4 | CC[C@H](C)[C@@H]1NC(=O)[C@H](CCC(=O)O)NC(=O)[C@@H]2CSSC[C@@H]3NC(=O)[C@H](Cc4ccc(O)cc4)NC(=O)[C@@H](NC(=O)[C@@H](NC(=O)[C@H](C)N)[C@@H](C)O)CSSC[C@@H](C(=O)N[C@@H](CCCNC(=N)N)C(=O)O)NC(=O)[C@H](CSSC[C@H](NC(=O)[C@H](CCCNC(=N)N)NC(=O)CNC(=O)[C@H]([C@@H](C)O)NC(=O)[C@H](CCCNC(=N)N)NC3=O)C(=O)N[C@@H](C)C(=O)N[C@@H]([C@@H](C)O)C(=O)N[C@@H](CCCNC(=N)N)C(=O)N[C@@H](CCC(=O)O)C(=O)N[C@@H](CO)C(=O)N[C@@H](CC(C)C)C(=O)N[C@@H](CO)C(=O)NCC(=O)N[C@@H](C(C)C)C(=O)N2)NC(=O)[C@H](CC(C)C)NC(=O)[C@H](CCCNC(=N)N)NC(=O)[C@H](Cc2ccc(O)cc2)NC(=O)[C@H](CC(C)C)NC(=O)[C@H](CCCNC(=N)N)NC(=O)CNC(=O)[C@H](CO)NC1=O [α-defensin 5] (H-ATCYCRTGRCATRESLSGVCEISGRLYRLCCR-OH; disulfide 3-31, 5-20, 10-30; N-terminus and C-terminus assumed) | 50 | 14 | – | – | – | –
5 | CC[C@H](C)[C@@H]1NC(=O)CNC(=O)[C@H](CCSC)NC(=O)[C@H](C(C)C)NC(=O)[C@H]([C@@H](C)O)NC(=O)[C@@H]2CSSC[C@@H]3NC(=O)[C@H](Cc4c[nH]cn4)NC(=O)[C@@H](NC(=O)[C@@H](NC(=O)[C@H](Cc4ccccc4)NC(=O)[C@H](C)N)[C@@H](C)O)CSSC[C@@H](C(=O)N[C@@H](CC(C)C)C(=O)O)NC(=O)[C@H](CSSC[C@H](NC(=O)[C@H](CO)NC(=O)[C@H](CCCNC(=N)N)NC(=O)[C@H](CCCNC(=N)N)NC3=O)C(=O)N[C@@H](Cc3ccc(O)cc3)C(=O)N[C@@H](CO)C(=O)N[C@@H]([C@@H](C)O)C(=O)N[C@@H](CCC(=O)O)C(=O)N[C@@H](Cc3ccc(O)cc3)C(=O)N[C@@H](CO)C(=O)N[C@@H](Cc3ccc(O)cc3)C(=O)NCC(=O)N[C@@H]([C@@H](C)O)C(=O)N2)NC(=O)[C@H](Cc2ccccc2)NC(=O)[C@H](CCCNC(=N)N)NC(=O)[C@H](Cc2c[nH]cn2)NC(=O)[C@H](CC(N)=O)NC1=O [α-defensin 6] | – | > 13 | > 13 | > 50 | > 50 | –
6 | AKKVFKRLEKLFSKIQNDK [HP 2-20] | > 256 | > 110 | > 110 | – | – | MIC [2, 8]: > 256 µg/mL
7 | Colistin [reference compound] | 0.75 | 0.7 | 28 | – | – | MIC50 [5]: ≤ 0.125 µg/mL; MIC90 [5]: 64 µg/mL; MIC50 ([5]; value in brackets): ≤ 0.11 µM; MIC90 ([5]; value in brackets): 55 µM; MIC ([5]; strain 12-1110 S1): ≤0.125 µg/mL; MIC ([5]; strain 15-0307 S4): ≤0.125 µg/mL; MIC ([5]; strain 15-0803 S3): ≤0.125 µg/mL; MIC ([5]; strain 21-0308 R2): 64 µg/mL; MIC ([5]; strain 21-0410 S5): ≤0.125 µg/mL; MIC ([5]; strain 21-0505 S2): ≤0.125 µg/mL; MIC ([5]; strain 36a): 0.25 µg/mL; MIC ([5]; strain 38a): ≤0.125 µg/mL; MIC ([5]; strain 27853): ≤0.125 µg/mL; MIC ([5]; strain 16359347-2 R3): 64 µg/mL; MIC ([5]; strain C1): 0.25 µg/mL; MIC ([5]; strain C2): 0.5 µg/mL; MIC ([5]; strain C3): ≤0.125 µg/mL; MIC ([5]; strain C4): 0.25 µg/mL; MIC ([5]; strain C5): ≤0.125 µg/mL; MIC [2, 8]: 32 µg/mL
8 | GIGDPVTCLKSGAICHPVFCPRRYKQIGTCGLPGTKCCKKP (disulfide 8-37, 15-30, 20-38) [β-defensin 2] | > 50 | > 12 | > 12 | – | – | MIC [2, 8]: > 50 µg/mL
9 | GIINTLQKYYCRVRGGRCAVLSCLPKEEQIGKCSTRGRKCCRRKK (disulfide 11-40, 18-33, 23-41) [β-defensin 3] | – | > 10 | > 10 | > 50 | > 50 | –
10 | GLLRKGGEKIGEKLKKIGQKIKNFFQKLVPQPEQ [CRAMP] | – | – | 8 | – | 32 | –
11 | GLVRKGGEKFGEKLRKIGQKIKEFFQKLALEIEQ [r-CRAMP] | – | > 65 | 16 | > 256 | 64 | –
12 | ISRLAGLLRKGGEKIGEKLKKIGQKIKNFFQKLVPQPEQ [CRAMP 1-39] | – | – | 7 | – | 32 | –
13 | KYYGNGVSCNKKGCSVDWGKAIGIIGNNSAANLATGGAAGWSK (disulfide 9-14) [Mundticin] | – | > 60 | > 60 | > 256 | > 256 | –
14 | RRRPRPPYLPRPRPPPFFPPRLPPRIPPGFPPRFPPRFP-NH2 (C-terminus assumed) [PR39] | – | 14 | 7 | – | – | –
15 | SSLLEKGLDGAKKAVGGLGKLGKDAVEDLESVGKGAVHDVKDVLDSVL [Dermicidin] | – | > 53 | > 53 | > 256 | > 256 | –
